Experiments:
human Nox4 = target: T1, human Nox4 (Homo sapiens, UniProt Q9NPH5); test: ROS production by membranes expressing human Nox4, cell-free Amplex Red assay; assay type: biochemical; settings: Nox4 versus Nox2, assay of Example 1
T1 construct: expressed in transfected cells; host or cells: T-REx-293 (hNOX4 T-REx-293), tetracycline-induced; membrane fraction
T1 sequence (Q9NPH5 1-578): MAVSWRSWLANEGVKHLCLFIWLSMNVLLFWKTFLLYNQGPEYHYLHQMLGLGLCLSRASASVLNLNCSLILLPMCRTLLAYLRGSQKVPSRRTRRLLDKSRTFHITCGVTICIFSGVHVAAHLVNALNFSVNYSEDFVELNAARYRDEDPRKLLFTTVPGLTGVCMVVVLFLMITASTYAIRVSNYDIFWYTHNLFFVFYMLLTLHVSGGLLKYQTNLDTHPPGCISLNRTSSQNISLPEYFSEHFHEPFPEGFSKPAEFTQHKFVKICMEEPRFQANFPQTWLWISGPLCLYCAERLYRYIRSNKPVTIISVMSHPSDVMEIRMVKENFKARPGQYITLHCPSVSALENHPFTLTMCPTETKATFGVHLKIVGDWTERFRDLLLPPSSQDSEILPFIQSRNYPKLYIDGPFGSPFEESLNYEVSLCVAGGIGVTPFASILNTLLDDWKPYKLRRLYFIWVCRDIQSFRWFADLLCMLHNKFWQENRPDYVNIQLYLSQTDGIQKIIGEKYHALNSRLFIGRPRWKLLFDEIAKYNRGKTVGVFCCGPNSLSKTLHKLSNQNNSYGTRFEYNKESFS
T1 sequence (P13498 2-195 partner limits assumed): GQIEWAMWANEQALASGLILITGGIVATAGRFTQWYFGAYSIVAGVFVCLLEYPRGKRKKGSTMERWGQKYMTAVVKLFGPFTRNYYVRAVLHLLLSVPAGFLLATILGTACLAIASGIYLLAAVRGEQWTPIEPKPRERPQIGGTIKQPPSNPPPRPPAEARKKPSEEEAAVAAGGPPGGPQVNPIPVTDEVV
Summary of the method: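 Membranes from tetracycline-induced (1 μg/ml, 24 h) T-REx cells overexpressing human Nox4, incubated in PBS with Amplex Red, HRP and co-factors; NADPH starts ROS production. Compounds 1 nM-100 μM, 20 min at 37° C.; fluorescence (ex 544/em 590 nm) over 10 min; Ki via Cheng-Prusoff, ≥3 experiments in triplicate.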

murine M-CSF-primed BMNC = test: RANKL-induced increase in cytosolic Ca2+ by Fura2 fluorescence; assay type: cell-based, mice; settings: 20 μmol/L co-applied with RANKL during stimulation (30 hours); wildtype cells; FIG. 4B
Source text: A: comparison of cells from wildtype and Nox4−/− mice; B: Effect of a Nox4 inhibitor (Compound (1) or solvent on calcium concentrations in wildtype cells; n≧3; *p<0.05.
Epiphyseal ends of the femora and tibiae were cut off and the bone marrow was flushed out with DMEM containing 10% FCS. Bone marrow stromal cells were collected and plated at a density of 2×10^6 cells/cm^2 in α-MEM containing 10% FCS and 1% penicillin/streptomycin. Following attachment, medium was replaced by basal medium supplemented with 25 ng/ml M-CSF (R&D Systems) for 2 days. Thereafter, cells were cultured for additional 6 days in differentiation medium containing 25 ng/ml M-CSF and 50 ng/ml RANKL (R&D Systems). TRAP staining was performed using the leukocyte acid phosphatase kit (Sigma) following the manufactures instructions according to Mukherjee et al., 2008, supra.
The role of Nox4 for the RANKL-induced increase in cytosolic Ca^2+ was investigated by FURA2 fluorescence as described below. […]
Cells were grown on 96 well plates and differentiated with or without RANKL as described above. […] After another washing step intracellular free Fura-2 and Ca^2+-bound Fura-2 was measured at the wavelength 340 and 380 nm by the ELISA Reader EnVision (PerkinElmer) in 100 μl HEPES Tyrode. […] Eventually the intracellular Ca^2+ was calculated as described by Grynkiewicz et al., 1985, J. Biol. Chem., 260(6):3440-3450.

[1] = test system: xanthine/xanthine oxidase; test: Antioxidant activity in an assay of Example 1 (ROS production by xanthine/xanthine oxidase, Amplex Red); assay type: biochemical; settings: as measured in an assay of Example 1
xanthine/xanthine oxidase, sequence (P47989 whole entry): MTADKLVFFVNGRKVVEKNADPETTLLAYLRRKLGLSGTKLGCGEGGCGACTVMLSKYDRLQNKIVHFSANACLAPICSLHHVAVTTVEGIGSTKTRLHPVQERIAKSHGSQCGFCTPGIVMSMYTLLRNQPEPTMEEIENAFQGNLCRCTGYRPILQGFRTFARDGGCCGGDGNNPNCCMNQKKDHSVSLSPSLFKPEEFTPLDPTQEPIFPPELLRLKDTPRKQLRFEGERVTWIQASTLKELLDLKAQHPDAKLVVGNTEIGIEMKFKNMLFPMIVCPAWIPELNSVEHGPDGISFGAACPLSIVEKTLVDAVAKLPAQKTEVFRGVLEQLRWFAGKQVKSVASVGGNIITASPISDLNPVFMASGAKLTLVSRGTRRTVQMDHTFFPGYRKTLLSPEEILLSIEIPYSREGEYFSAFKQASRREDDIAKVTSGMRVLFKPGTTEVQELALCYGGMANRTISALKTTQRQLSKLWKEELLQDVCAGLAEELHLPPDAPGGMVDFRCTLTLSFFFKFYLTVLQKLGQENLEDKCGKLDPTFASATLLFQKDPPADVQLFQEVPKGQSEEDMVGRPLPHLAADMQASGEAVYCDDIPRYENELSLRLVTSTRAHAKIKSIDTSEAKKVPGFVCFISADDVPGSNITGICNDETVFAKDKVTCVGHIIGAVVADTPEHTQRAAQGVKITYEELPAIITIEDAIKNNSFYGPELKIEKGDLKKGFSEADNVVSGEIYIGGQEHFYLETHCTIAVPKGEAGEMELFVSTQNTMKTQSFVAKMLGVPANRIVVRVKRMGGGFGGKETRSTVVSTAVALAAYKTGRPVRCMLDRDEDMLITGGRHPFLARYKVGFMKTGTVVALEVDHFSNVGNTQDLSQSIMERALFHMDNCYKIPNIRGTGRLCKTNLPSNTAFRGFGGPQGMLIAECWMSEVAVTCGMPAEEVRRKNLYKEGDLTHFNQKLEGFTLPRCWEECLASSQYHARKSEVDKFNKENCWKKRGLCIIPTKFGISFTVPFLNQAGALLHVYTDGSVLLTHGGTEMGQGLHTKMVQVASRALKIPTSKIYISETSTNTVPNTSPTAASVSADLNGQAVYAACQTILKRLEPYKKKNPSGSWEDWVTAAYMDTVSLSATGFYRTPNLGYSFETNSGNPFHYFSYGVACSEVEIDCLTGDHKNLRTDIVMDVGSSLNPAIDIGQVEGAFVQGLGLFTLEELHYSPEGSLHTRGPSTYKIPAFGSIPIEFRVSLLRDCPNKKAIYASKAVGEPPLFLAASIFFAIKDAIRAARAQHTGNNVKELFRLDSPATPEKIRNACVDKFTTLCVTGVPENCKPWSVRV
Description: Reactive Oxygen Species (ROS) production by membranes expressing either human Nox1, or human Nox2 or human Nox4 or human Nox5 or by xanthine/xanthine oxidase were measured using the Amplex Red (AR) method following a slightly modified version of the manufacturer's instruction manual (Invitrogen). Briefly, membranes or xanthine were incubated in PBS with Amplex Red, Horse Radish Peroxidase (HRP) and appropriated co-factors. ROS production was induced by addition of NADPH to NOX-expressing membrane or by addition of xanthine to xanthine oxidase. Non-specific signal was measured in the absence of membranes or in the absence of xanthine.
Antagonist activity of compounds was measured in the presence of increasing concentrations ranging from 1 nM to 100 μM. After an incubation of 20 min in a plate shaker and incubator (Titramax 1000, VWR) at 37° C. with weak agitation (300 rpm), ROS levels were measured for 10 min in a BMG Fluostar microplate reader with excitation and emission wavelengths of 544 nm and 590 nm respectively.

With `CN(C)c1cccc(-c2c3c(=O)n(-c4ccccc4Cl)[nH]c3cc(=O)n2C)c1` [2-(2-chlorophenyl)-4-[3-(dimethylamino)phenyl]-5-methyl-1H-pyrazolo[4,3-c]pyridine-3,6(2H,5H)-dione] the “IC50 for Nox4 relative to Nox2” value (human Nox4) was “approximately 10 fold”, the “RANKL induced increase in cytosolic Ca2+” value (murine M-CSF-primed BMNC) was “prevented the RANKL induced increase in cytosolic Ca^2+” and the antioxidant activity [1] was “no antioxidant activity”.

From US20140323500A1, “NADPH OXIDASE 4 INHIBITORS AND USE THEREOF” (GENKYOTEX SA, priority 2011, published 2014)
